{"source": "patent US20100221719A1", "about": "“Probes for detecting protein nuclear transport and method for detecting and quantifying protein nuclear transport using the same” (priority 2004, published 2010)", "molecules": {"B1": {"name": "oncostatin M (protein, UniProt P13725 26-221, looked up)", "Oncostatin-M": "AAIGSCSKEYRVLLGQLQKQTDLMQDTSRLLDPYIRIQGLDVPKLREHCRERPGAFPSEETLRGLGRRGFLQTLNATLGCVLHRLADLEQRLPKAQDLERSGLNIEDLEKLQMARPNILGLRNNIYCMAQLLDNSDTAEPTKAGRGASQPPTPTPASDAFQRKLEGCRFLHGYHRFMHSVGRVFSKWGESPNRSRR", "notes": "oncostatin M (OSM), a ligand"}}, "key": {"[1]": {"tested_on": "Sterol Regulatory Element-Binding Proten-2 (SREBP-2)", "assay": "Confirmation of SREBP-2 localization in COS-7 cells transfected with pcDRc-SREBP", "assay_type": "cell-based", "conditions": "in the presence of cholesterol, FIG. 18", "text": "Plasmid pcDRc-AR in Examples 1 to 6 was cleaved with restriction endonucleases NotI and XhoI to remove the cDNA encoding AR, and a cDNA encoding SREBP-2 was inserted at NotI and XhoI sites thereby constructing pcDRc-SREBP (FIG. 17)."}, "[2]": {"tested_on": "Sterol Regulatory Element-Binding Proten-2 (SREBP-2)", "assay": "Quantification of SREBP-2 translocation into the nucleus (reconstituted RLuc luminescence, COS-7 cells)", "assay_type": "cell-based", "conditions": "different concentrations of cholesterol, FIG. 19", "description": "Translocation of SERPB-2 into the nucleus was qualified in the same manner as in Example 7. COS-7 cells were cotransfected with pcRDn-NLS and pcDRc-SREBP, and different concentrations of cholesterol were added to each microtiter well. The cells were harvested, and their lysates were mixed with a coelenterazine solution."}, "androgen receptor (AR) [3]": {"target": "T1, androgen receptor (AR) (Homo sapiens, UniProt P10275)", "T1 construct": "DnaE-C (C-terminal splicing domain of DnaE intein) (N); expressed in transfected cells; host or cells: COS-7", "T1 sequence (P10275 1-920)": "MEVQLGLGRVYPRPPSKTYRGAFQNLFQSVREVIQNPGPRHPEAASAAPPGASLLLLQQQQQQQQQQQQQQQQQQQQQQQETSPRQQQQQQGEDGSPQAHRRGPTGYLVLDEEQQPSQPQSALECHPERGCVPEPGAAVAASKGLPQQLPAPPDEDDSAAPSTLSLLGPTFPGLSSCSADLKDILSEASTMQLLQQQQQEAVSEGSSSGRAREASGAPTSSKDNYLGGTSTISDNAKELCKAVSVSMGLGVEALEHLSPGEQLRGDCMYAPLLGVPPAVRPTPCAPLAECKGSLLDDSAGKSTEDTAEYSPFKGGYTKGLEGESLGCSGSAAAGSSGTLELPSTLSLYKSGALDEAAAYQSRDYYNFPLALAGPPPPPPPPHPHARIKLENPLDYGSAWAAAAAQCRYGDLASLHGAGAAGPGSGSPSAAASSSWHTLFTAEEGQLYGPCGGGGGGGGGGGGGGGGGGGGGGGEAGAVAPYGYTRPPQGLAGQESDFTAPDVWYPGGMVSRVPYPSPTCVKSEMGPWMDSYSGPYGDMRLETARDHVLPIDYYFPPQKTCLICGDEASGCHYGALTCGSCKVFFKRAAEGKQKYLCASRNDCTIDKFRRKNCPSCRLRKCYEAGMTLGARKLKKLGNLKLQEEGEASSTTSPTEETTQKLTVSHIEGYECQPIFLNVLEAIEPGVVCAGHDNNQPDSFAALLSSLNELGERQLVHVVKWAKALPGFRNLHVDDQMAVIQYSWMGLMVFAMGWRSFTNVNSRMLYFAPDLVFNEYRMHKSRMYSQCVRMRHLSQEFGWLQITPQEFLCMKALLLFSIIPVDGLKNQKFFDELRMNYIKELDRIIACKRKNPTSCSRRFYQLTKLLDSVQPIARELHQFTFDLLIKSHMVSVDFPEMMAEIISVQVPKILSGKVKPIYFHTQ", "assay": "Cell-based in vitro assay of AR translocation into the nucleus (reconstituted RLuc luminescence, COS-7 cells)", "description": "COS-7 cells were cotransfected with the plasmids and incubated for 12 h. The medium was replaced with DMEM supplemented with 10% FBS, and 24 h after the replacement, steroid hormones or synthetic chemicals were added to each well.\nAfter the COS-7 cells were extensively incubated for 2 hours, the cells were harvested, and luciferase activity was evaluated by using the Renilla luciferase assay kit (Promega) with a luminometer (Minilumat LB9506; Berthold, GmbH) with an integration time of 20 sec.\nThe cells were harvested, and their lysates were mixed with a coelenterazine solution."}, "androgen receptor (AR) [4]": {"target": "T1, androgen receptor (AR)", "assay": "In vivo imaging of AR nuclear import in mouse brain with implanted cotransfected COS-7 cells", "conditions": "inhibitor 10 mg/kg i.p. plus DHT, average from three mice", "protocol": "Two hours after injection, 10 μl of coelenterazine (0.14 mg/kg of body weight) was injected intracerebrally in the mice, and representatives from each mouse group (n=3) were imaged in 2-min intervals."}, "[5]": {"target": "T2, glucocorticoid receptor (GR) (Homo sapiens, UniProt P04150)", "T2 construct": "DnaE-C (C-terminal splicing domain of DnaE intein) (N); expressed in transfected cells; host or cells: NIH3T3", "T2 sequence (P04150 1-777)": "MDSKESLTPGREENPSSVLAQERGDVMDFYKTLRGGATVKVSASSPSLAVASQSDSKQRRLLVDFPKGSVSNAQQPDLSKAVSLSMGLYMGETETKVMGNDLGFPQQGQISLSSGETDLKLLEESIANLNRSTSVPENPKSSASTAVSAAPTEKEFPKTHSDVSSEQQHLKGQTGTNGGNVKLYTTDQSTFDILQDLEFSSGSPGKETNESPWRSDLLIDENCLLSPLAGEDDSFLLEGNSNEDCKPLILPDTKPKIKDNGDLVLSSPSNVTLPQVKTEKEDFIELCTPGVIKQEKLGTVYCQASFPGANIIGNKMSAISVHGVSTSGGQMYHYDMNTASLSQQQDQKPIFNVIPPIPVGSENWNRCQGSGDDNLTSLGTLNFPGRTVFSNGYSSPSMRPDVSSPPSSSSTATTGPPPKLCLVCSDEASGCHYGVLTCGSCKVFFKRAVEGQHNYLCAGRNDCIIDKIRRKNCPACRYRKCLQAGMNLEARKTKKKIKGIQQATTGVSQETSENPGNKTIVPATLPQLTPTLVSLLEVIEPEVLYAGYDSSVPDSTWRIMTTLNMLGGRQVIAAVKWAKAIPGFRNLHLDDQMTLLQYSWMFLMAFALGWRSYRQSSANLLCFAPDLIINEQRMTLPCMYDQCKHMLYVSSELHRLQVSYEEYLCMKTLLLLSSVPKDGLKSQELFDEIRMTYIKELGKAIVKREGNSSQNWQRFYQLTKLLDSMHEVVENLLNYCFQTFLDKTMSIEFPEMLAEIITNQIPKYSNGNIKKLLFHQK", "assay": "Confirmation of GR localization in NIH3T3 cells transfected with pcDRc-GR", "assay_type": "cell-based", "conditions": "addition of corticosterone, FIG. 14", "description": "Plasmid pcDRc-AR in Examples 1 to 6 was cleaved with restriction endonucleases NotI and XhoI to remove the cDNA encoding AR, and a cDNA encoding glucocorticoid receptor (GR) was inserted at NotI and XhoI sites (FIG. 13). The same experiment as in case of AR was performed using the thus-constructed plasmid."}, "[6]": {"target": "T2, glucocorticoid receptor (GR)", "assay": "Quantification of GR translocation into the nucleus (reconstituted RLuc luminescence, NIH3T3 cells)", "assay_type": "cell-based", "description": "NIH3T3 cells were cotransfected with pcRDn-NLS and pcDRc-GR, and different concentrations of corticosterone were added to each microtiter well. The cells were harvested, and their lysates were mixed with a coelenterazine solution."}, "[7]": {"tested_on": "Signal Transducer and Activator of Transcription 3 (STAT-3)", "assay": "Quantification of STAT-3 translocation into the nucleus (reconstituted RLuc luminescence, HEK293 cells)", "assay_type": "cell-based", "conditions": "different concentrations of OSM", "description": "HEK293 cells were cotransfected with pcRDn-NLS and pcDRc-STAT3, and different concentrations of OSM were added to each microtiter well. The cells were harvested, and their lysates were mixed with a coelenterazine solution."}, "[8]": {"tested_on": "Signal Transducer and Activator of Transcription 3 (STAT-3)", "assay": "Confirmation of STAT-3 localization in HEK293 cells transfected with pcDRc-STAT3", "assay_type": "cell-based", "conditions": "addition of OSM, FIG. 21", "text": "Plasmid pcDRc-AR in Examples 1 to 6 was cleaved with restriction endonucleases NotI and XhoI to remove the cDNA encoding AR, and a cDNA encoding STAT-3 was inserted at NotI and XhoI sites thereby constructing pcDRc-STAT-3 (FIG. 20)."}}, "data": [{"molecule": "CC(C)CCC[C@@H](C)[C@H]1CC[C@H]2[C@@H]3CC=C4C[C@@H](O)CC[C@]4(C)[C@H]3CC[C@]12C", "note": "[cholesterol]", "values": [{"measurement": "localization of the probe with SREBP-2", "setting": "[1]", "result": "predominantly in cytoplasmic"}, {"measurement": "luminescence signals of reconstituted RLuc (dose-response)", "setting": "[2]", "result": "increased with decreasing the concentration of cholesterol"}]}, {"molecule": "CC12CC1(C)C(=O)N(c1cc(Cl)cc(Cl)c1)C2=O", "note": "(stereo not shown) [procymidone]", "values": [{"measurement": "inhibition of DHT-induced luminescence / nuclear translocation of AR", "setting": "androgen receptor (AR) [3]; in the presence of DHT, FIG. 5c", "result": "inhibit the DHT-induced strong luminescence"}, {"measurement": "increase in observed luminescence intensity (AR translocation, compound alone)", "setting": "androgen receptor (AR) [3]; over the concentration range tested, FIG. 5b", "result": "did not induce any increase"}, {"measurement": "luminescence intensity on stimulation with DHT together with inhibitor", "setting": "androgen receptor (AR) [4]", "result": "decrease in luminescence intensity"}]}, {"molecule": "C[C@]12C[C@H](O)[C@H]3[C@@H](CCC4=CC(=O)CC[C@@]43C)[C@@H]1CC[C@@H]2C(=O)CO", "note": "[corticosterone]", "values": [{"measurement": "localization of Probe I (GR)", "setting": "[5]", "result": "nuclear localization of Probe I"}, {"measurement": "luminescence signals of reconstituted RLuc (dose-response)", "setting": "[6]; different concentrations of corticosterone", "result": "increased with increasing the concentration of corticosterone"}]}, {"molecule": "C[C@]12CCC(=O)C=C1CC[C@@H]1[C@@H]2[C@@H](O)C[C@@]2(C)[C@H]1CC[C@]2(O)C(=O)CO", "note": "[cortisol]", "values": [{"measurement": "induction of GR translocation into the nucleus", "setting": "[6]; FIG. 15", "result": "induce the GR translocation into the nucleus"}]}, {"molecule": "B1", "values": [{"measurement": "luminescence signals of reconstituted RLuc (dose-response)", "setting": "[7]", "result": "increased with decreasing the concentration of cOSM"}, {"measurement": "localization of the probe with STAT3", "setting": "[8]", "result": "nuclear localization of the probe"}]}]}
